Assay [1] can be described thus: Mouse Growth Regulant Tests (12-day weight gain over controls, compound in diet). The class given is in vivo, CFI female mice. To be noted: Mus musculus, feed or water, 288 h; for change in vivo at 50 ppm: 50 ppm in diet; for change in vivo at 200 ppm: 200 ppm in diet; for change in vivo at 400 ppm: 400 ppm in diet. As for the experimental part:
CFI female mice from Carworth Farms are received when they are six weeks old. They are housed ten to a cage in air-conditioned rooms (72° F. to 76° F.) with automatically controlled lights, 14 hours on and 10 hours off. The basal diet used in these studies is Purina Laboratory Chow (see description below), which is supplied ad libitum. Water is also allowed ad libitum.
Thirteen days after arrival, the mice are weighed in groups of ten and assigned at random to the different treatments. Twelve days later the mice are weighed again and the experiment terminated. At least three cages (30 mice) of untreated controls are included in each test. Test data are provided in Tables VI, VII, VIII, and IX below wherein data are reported as percent weight gain over controls. Unless otherwise indicated in these tables, all compounds tested were dl-racemic mixtures. The following is a description of the diet to which the growth promoting compounds were added.

A short description of assay [2]: Growth enhancement and feed efficiency improvement in sheep fed levels of test compounds (six weeks). It is filed as in vivo, sheep (Wether lambs). Conditions: for Average Daily Gain (kg)/Lamb, av. / Six-Week Feed/Gain, av.: average of 5 replications; for Average Daily Gain (kg)/Lamb / Six-Week Feed/Gain: replications 1 to 5. The text has this:
To determine the effect of feeding experimental compounds on sheep performance, Wether lambs are randomly allotted to pens in groups of six. The sheep are weighed and permitted feed and water ad libitum. The feed is weighed daily, and uneaten feed from the previous day is collected and weighed. Test lambs receive the same diet as control animals but with the addition of experimental compound at a concentration of either 15 or 60 ppm. At the end of the six-week treatment period, the lambs are again weighed, and total feed is calculated.
In these tests, five replicates of six lambs each per treatment are used.

A short description of assay [3]: Growth enhancement and feed efficiency in sheep given an implant containing test compound (six weeks). To be noted: for Average 6-Week Feed/Gain per Pen, AV. / Average 6-Week Weight Gain (kg.)/Lamb, AV.: average of 6 replications; for Average 6-Week Feed/Gain per Pen / Average 6-Week Weight Gain (kg.)/Lamb: replications 1 to 6. It is filed as in vivo, sheep (Wether lambs). The text has this:
To determine the effect of a 4,5,6,7-tetrahydrobenzo[b]thien-4-ylurea compound on sheep, Wether lambs are randomly allotted to pens in groups of six. The sheep are weighed and permitted food and water ad libitum. The feed is weighed daily, and uneaten feed from the previous day is collected and weighed. Test lambs receive the same unmedicated diet as control animals, but test animals receive one or more subcutaneous implants containing test compound at the base of the ear. The formulation of the implant used is given below. At the end of the six-week treatment period, the lambs are again weighed, and total feed consumed is calculated.
In these tests, six replicates of six lambs each per treatment are used and each animal receives from about 11 mg. to 105 mg. of test compound.

The nature of assay [4]: Chick tests: growth promotion and feed/gain, 13 days, compound in basal diet. The class given is in vivo, chicks. Conditions: for Average 13-day Chick/Gain (g), AV. / Average 13-day Feed/Gain, AV.: average of 4 experiments; for Average 13-day Chick/Gain / Average 13-day Feed/Gain: experiments 1928, 1929, 1930, 1931; for Percent Improvement (13-day chick gain) / Percent Improvement (13-day feed/gain): vs control. The procedure:
The following tests were conducted to evaluate the ability of 4,5,6,7-tetrahydrobenzo[b]thien-4-ylurea to promote growth in chicks.
In these tests day-old chicks are placed in heated cages and given feed and water ad libitum. In each test there are 5 male and 5 female chicks per cage and three cages per treatment are used. Treatments consist of a basal diet plus 1,3 or 9 ppm. of test compound. The chicks are weighed at the beginning and end of the experiment. Feed consumption is determined for the experimental period which is 13 days beginning when the chicks are one day old.

The values below come from patent US4036979A, “Compositions containing 4,5,6,7-tetrahydrobenz[b]thien-4-yl-ureas or derivatives and methods of enhancing growth rate” (American Cyanamid Company, priority 1976, dated 1977).

“And” between values parts separate entries of the source, which are not always exact repeats. Equal values may be shown once.

In assay [1] (Table VI), `NC(=O)NC1CCCc2sccc21` (stereo not drawn) [4,5,6,7-tetrahydrobenzo[b]thien-4-ylurea] showed a change in vivo at 50 ppm of 50.1%, a change in vivo at 200 ppm of 134% and a change in vivo at 400 ppm of 120%. Besides, in assay [2] (15 ppm in feed), the “Average Daily Gain (kg)/Lamb, av.” value is on record as 0.186 kg; the “Six-Week Feed/Gain, av.” value is 6.611; the “Average Daily Gain (kg)/Lamb” value was 0.190 kg and 0.187 kg and 0.186 kg and 0.174 kg and 0.195 kg; the “Six-Week Feed/Gain” value is 6.777 and 6.174 and 6.158 and 7.626 and 6.319. Also, in assay [2] (60 ppm in feed), the “Average Daily Gain (kg)/Lamb, av.” value stood at 0.208 kg; the “Six-Week Feed/Gain, av.” value was 6.148; the “Average Daily Gain (kg)/Lamb” value was 0.211 kg and 0.250 kg and 0.200 kg and 0.193 kg and 0.189 kg; the “Six-Week Feed/Gain” value was 6.250 and 5.539 and 6.040 and 6.507 and 6.403. Further, in assay [3] (11 mg. or 99 mg. implanted, six weeks), the “improvement of feed utilization over untreated controls” value is recorded as “about 5%”. Further, the “increase in weight gain over untreated controls” value in assay [3] (11 mg. or 99 mg. implanted, six weeks after implantation) is given as around 10%. Besides, in assay [3] (1 drug implant), the “Average 6-Week Feed/Gain per Pen, AV.” value was found to be 7.57; the “Average 6-Week Weight Gain (kg.)/Lamb, AV.” value turned out to be 8.86 kg; the “Average 6-Week Feed/Gain per Pen” value was 6.63 and 6.58 and 7.41 and 8.21 and 8.05 and 8.49; the “Average 6-Week Weight Gain (kg.)/Lamb” value is 11.25 kg and 9.32 kg and 9.20 kg and 8.63 kg and 8.05 kg and 6.68 kg. In addition, in assay [3] (9 drug implants), the “Average 6-Week Feed/Gain per Pen, AV.” value is reported as 7.49; the “Average 6-Week Weight Gain (kg.)/Lamb, AV.” value amounted to 8.69 kg; the “Average 6-Week Feed/Gain per Pen” value is 6.51 and 6.75 and 7.80 and 8.38 and 7.56 and 7.97; the “Average 6-Week Weight Gain (kg.)/Lamb” value is 10.83 kg and 9.60 kg and 8.75 kg and 7.20 kg and 8.53 kg. Moreover, in assay [4] (1 ppm), the “Average 13-day Chick/Gain (g), AV.” value was found to be 189 g; the “Average 13-day Feed/Gain, AV.” value is 1.46; the “Average 13-day Chick/Gain” value is 181 g and 193 g and 182 g and 200 g; the “Average 13-day Feed/Gain” value is 1.48 and 1.45 and 1.49 and 1.44. Further, in assay [4] (1 ppm), the “Percent Improvement (13-day chick gain)” value worked out at 3.3% and the “Percent Improvement (13-day feed/gain)” value is reported as 2.7%. For the same molecule, in assay [4] (3 ppm), the “Average 13-day Chick/Gain (g), AV.” value stood at 195 g; the “Average 13-day Feed/Gain, AV.” value was found to be 1.43; the “Average 13-day Chick/Gain” value was 199 g and 186 g and 197 g and 198 g; the “Average 13-day Feed/Gain” value is 1.47 and 1.40 and 1.44. For the same molecule, in assay [4] (3 ppm), the “Percent Improvement (13-day chick gain)” value worked out at 6.6% and the “Percent Improvement (13-day feed/gain)” value is listed as 4.7%. Moreover, in assay [4] (9 ppm), the “Average 13-day Chick/Gain (g), AV.” value is listed as 193 g; the “Average 13-day Feed/Gain, AV.” value is recorded as 1.44; the “Average 13-day Chick/Gain” value was 190 g and 198 g and 191 g; the “Average 13-day Feed/Gain” value was 1.45 and 1.46 and 1.40. In assay [4] (9 ppm), the “Percent Improvement (13-day chick gain)” value stood at 5.5% and the “Percent Improvement (13-day feed/gain)” value amounted to 4.0%.

For the molecule `NC(=O)NC1CCC(=O)c2sccc21` (stereo not drawn) [Compound B, 4,5,6,7-tetrahydro-7-oxobenzo[b]thien-4-ylurea], in assay [2] (15 ppm in feed), the “Average Daily Gain (kg)/Lamb, av.” value worked out at 0.202 kg; the “Six-Week Feed/Gain, av.” value came to 6.216; the “Average Daily Gain (kg)/Lamb” value was 0.187 kg and 0.208 kg and 0.218 kg and 0.186 kg and 0.210 kg; the “Six-Week Feed/Gain” value was 6.785 and 6.067 and 5.344 and 6.795 and 6.089. In assay [2] (60 ppm in feed), the “Average Daily Gain (kg)/Lamb, av.” value turned out to be 0.208 kg; the “Six-Week Feed/Gain, av.” value worked out at 5.151; the “Average Daily Gain (kg)/Lamb” value was 0.216 kg and 0.207 kg and 0.237 kg and 0.189 kg and 0.190 kg; the “Six-Week Feed/Gain” value is 6.116 and 6.263 and 5.144 and 6.723 and 6.506.

In assay [1] (Table VIII), `CN(C)C(=O)NC1CCC(O)c2sccc21` (stereo not drawn) [Table VIII: O,CH3,CH3, 1,1-dimethyl-3-(7-hydroxy-4,5,6,7-tetrahydrobenzo[b]thien-4-yl)urea] came in with a change in vivo at 400 ppm of 81.5%.

In assay [1] (Table VIII), `CON(C)C(=O)NC1CCC(O)c2sccc21` (stereo not drawn) [Table VIII: O,CH3,OCH3, 1-methyl-1-methoxy-3-(7-hydroxy-4,5,6,7-tetrahydrobenzo[b]-thien-4-yl)urea] displayed a change in vivo at 200 ppm of 60.5%.

`CCNC(=O)NC1CCC(O)c2sccc21` (stereo not drawn) [Table VIII: O,H,C2H5, 1-ethyl-3-(7-hydroxy-4,5,6,7-tetrahydrobenzo[b]thien-4-yl)urea] had a change in vivo at 200 ppm in assay [1] (Table VIII) of 73.4%.

For the molecule `C#CCNC(=O)NC1CCC(O)c2sccc21` (stereo not drawn) [Table VIII: O,H,CH2CCH, 1-(2-propynyl)-3-(7-hydroxy-4,5,6,7-tetrahydrobenzo[b]thien-4-yl)urea], the change in vivo at 50 ppm in assay [1] (Table VIII) was 49.2%.

In assay [1] (Table VIII), `C=CCNC(=O)NC1CCC(O)c2sccc21` (stereo not drawn) [Table VIII: O,H,CH2CHCH2, 1-allyl-3-(7-hydroxy-4,5,6,7-tetrahydrobenzo[b]thien-4-yl)-urea] gave a change in vivo at 400 ppm of 29.1%.

Consider `COCNC(=O)NC1CCC(O)c2sccc21` (stereo not drawn) [Table VIII: O,H,CH2OCH3, 1-(methoxymethyl)-3-(4,5,6,7-tetrahydro-7-hydroxybenzo[b]thien-4-yl)urea], for which the change in vivo at 400 ppm in assay [1] (Table VIII) stood at 124%.

As for `CNC(=O)NC1CCC(O)c2sccc21` (stereo not drawn) [Table VIII: O,H,CH3, 1-methyl-3-(7-hyroxy-4,5,6,7-tetrahydrobenzo[b]thien-4-yl)urea], the change in vivo at 400 ppm in assay [1] (Table VIII) amounted to 60.2%.

The molecule `CONC(=O)NC1CCC(O)c2sccc21` (stereo not drawn) [Table VIII: O,H,OCH3, 1-methoxy-3-(7-hydroxy-4,5,6,7-tetrahydrobenzo[b]thien-4-yl)urea] displayed a change in vivo at 400 ppm in assay [1] (Table VIII) of 66.7%.

Molecule `CC(C)NC(=O)NC1CCC(O)c2sccc21` (stereo not drawn) [Table VIII: O,H,iso-C3H7] registered a change in vivo at 200 ppm in assay [1] (Table VIII) of 43.9%.

Consider `CNC(=S)NC1CCC(O)c2sccc21` (stereo not drawn) [Table VIII: S,H,CH3], for which the change in vivo at 400 ppm in assay [1] (Table VIII) amounted to 85.1%.
